# Patent US20150037341A1, “Diagnostic and Therapeutic Method” (Plysackaridforskning i Uppsala AB, priority 2011, published 2015)
# “Also recorded” adds a separate entry of the source.
# Experiments:
# [1] = Nitrocellulose-filter trapping of 3H-labeled heparin bound to TTR peptides; type: binding; conditions: pH 5.0, 3H-labeled heparin 1500 cpm
# Description: (§1) (A) TTR amino acid sequence where histidine “(+)” and other basic amino acids “+” are marked. (B) Equal mole of TTR-peptides or full-length protein (with or without acidic dissociation), were incubated with ^3H-labeled heparin (1500 cpm) at pH 5.0. The amount of ^3H-labeled heparin bound to the peptides was analyzed using a nitrocellulose-filter trapping method.
# To characterize the TTR-heparin interaction, we incubated TTR and its peptide fragments with ^3H-heparin. The binding was analyzed by a nitrocellulose-filter trapping method (18). […] This heparin-binding peptide contains three basic amino acids, including a histidine that likely contributed to the pH dependency seen in the TTR-heparin/HS interaction. This selective binding propy was further verified by SPR analysis (FIG. 9).
# [2] = target: T1, dissociated TTR immobilized onto a Biacore sensor chip (Homo sapiens, UniProt P02766); assay: Surface plasmon resonance (Biacore), heparin/HS over immobilized TTR; type: binding
# T1 construct: made in house; host or cells: bacteria
# Description: (A) Dissociated TTR was immobilized onto a Biacore sensor chip and heparin (10 μM) was allowed to interact with the immobilized TTR in neutral or in mildly acidic conditions. (B) HS II (10 μM) binding to TTR at different pH was monitored and the response for each sample is expressed as response units (RU). […] (C) TTR (50 μM) incubated with heparin or HS II for 7 days at pH 5.0 or pH 7.4 was analyzed by ThT fluorescence. Data represent triplicate experiments (means±SEM).
# Dissociated TTR was immobilized onto a Biacore sensor chip. Heparin (A), HS II (B) or HS I (C) were injected in a concentration series (ranging from 0.001-70 μM) over the surface at pH 5.0. The response for each concentration was measured at the steady-state region of the curve. The apparent equilibrium dissociation constant (KD) was calculated by plotting the response at steady-state for each concentration versus heparin/HS concentration. The data were fitted to the equation: Response=(Rmax*C)/(KD+C), where C is the concentration of heparin/HS. Two analyte flow rates (20 and 30 μl/min) were tested to assess possible effects of mass transport limitations in the system. […] The presented values are average value of three independent experiments.
# (A) Equal amount of dissociated or native protein was immobilized onto a Biacore sensor chip and HS II was allowed to interact with the immobilized TTR at pH 5.0. (B) The values of the HS II-TTR interaction signal were obtained by repeated experiments using three chips with different ligand densities (250-3000 RU). The signals were normalized to a ligand density of 1000 RU and average value is shown. Statistical analysis was done by t test.
# Interaction of TTR with heparin/HS was evaluated using a Biosensor system (Biacore2000). TTR was dissociated in acidic buffer (pH 2.7) and then diluted into a 50 mM NaAc (pH 5.0) coupling buffer and immobilized onto a CM5 sensor chip to a level of 3000 RU using an amine-coupling kit (GE Healthcare, Uppsala, Sweden). For binding and kinetic analysis, heparin or HS was injected (concentrations indicated in figure legend) over the surface and equilibrated at different pH. The surface was regenerated after each sample with a 30 s wash step of 0.5 M NaCl. All obtained sensorgrams were double-reference subtracted in Biacore evaluation software 2.0, using the reference flow cell and buffer blank sample.
# [3] = SPR analysis of TTR peptides binding to immobilized heparin; conditions: pH 5.0, peptide conc. 25 μg/ml, flow rate 20 μl/min
# Description: Heparin was immobilized onto a Biacore sensor chip (CM5) using the surface thiol coupling kit (GE Healthcare). Peptides derived from regions on the TTR sequence (FIG. 5A) containing a histidine residue (24-35, 51-61 and 84-94), were allowed to interact with the heparin surface at pH 5.0 (peptide conc. 25 μg/ml; flow rate 20 μl/min).
# [4] = target: T2, full-length TTR (native, dissociated or aggregated) (Homo sapiens, UniProt P02766); assay: Nitrocellulose-filter trapping of 3H-labeled heparin bound to full-length TTR; type: binding
# T2 construct: Equal mole of TTR-peptides or full-length protein (with or without acidic dissociation); made in house; host or cells: bacteria
# Description: as §1
# Recombinant wild type TTR (500 μM) was dissolved in phosphate buffer (pH 7.4 or 2.7) and incubated at 37° C. for the time period as indicated. (a) The incubated samples were analyzed for their degree of aggregation with native PAGE. (b) The samples were incubated with ^3H-labelled heparin for 30 min at room temperature. The amount of heparin bound to the samples with different aggregation degree was analyzed by a nitrocellulose-filter trapping method.
# recombinant human WT TTR = target: T3, recombinant human WT TTR (Homo sapiens, UniProt P02766); assay: Thioflavin T (ThT) fluorescence assay of TTR fibrillization in vitro; type: biochemical
# T3 construct: made in house; host or cells: bacteria
# Description: (§2) (A, B) The TTR dissolved in phosphate buffer (50 μM, pH 2.7) was incubated alone or with different heparin or HS (12 μM) at 37° C. for 48 h. After incubation the samples were mixed with ThT and fluorescence was measured. Data shown represent triplicate experiments (means±SEM). (C) TTR (500 μM) incubated with heparin (0, 5 or 20 μM) under the same conditions were analyzed with native-PAGE as described in Methods. […] The fibrils migrated in the stacking gel is not shown. (D) Microscopic analysis of the TTR after incubation with heparin. The sample was spotted on a glass and stained with Congo red. Images were taken under fluorescent light (Original magnification: 20×; Scale bar: 5 μm) and polarized light (insert).
# (§3) Recombinant wild-type TTR was expressed in bacteria and purified as described previously (Furuya et al. (1991) Biochemistry 30:2415-2421). The purified protein was dissolved in 20 mM phosphate buffer-citric acid (pH 2.7, 3.5, 4.5 or 7.4) to a final concentration of 50 μM for Thioflavin T fluorescence or 500 μM for native-PAGE. Heparin (3H-labeled or unlabeled) and HS were added to the TTR solution to the concentrations as indicated in the respective figure legend. The samples were incubated at 37° C. for the time period as specified.
# After incubation, 5 μl of the sample was mixed with ThT in water to a final concentration of 20 μM ThT. The mixture was transferred to a flat bottom-black 96-well plate (Grainer) and the fluorescence was measured at excitation- and emission wavelength of 440 and 480 nm, respectively (Gain=55, FARcyte instruments). Samples aggregated at different pHs were adjusted to neutral pH after completed incubation prior to ThT staining. The experiments were run in duplicate or triplicate.
# [5] = target: T4, recombinant wild-type TTR (Homo sapiens, UniProt P02766); assay: Native-PAGE of TTR incubated with heparin (Coomassie, Alcian blue, 3H counting of gel sections); type: biochemical
# T4 construct: made in house; host or cells: bacteria
# Description: TTR dissolved in phosphate buffer (pH 2.7) was co-incubated with heparin (mixture of ^3H-labeled and non-labeled) at 37° C. for 48 h. (A) The TTR-heparin co-incubated sample and heparin alone were separated with native-PAGE and stained with Alcian blue. (B) An identical set of samples was separated on the native-PAGE as above, and each lane was cut into six sections (as illustrated in A). The gel slices were incubated for 2 hr in H2O to extract the heparin. The radioactivity was measured by scintillation counting.
# TTR dissolved in phosphate buffer (pH 2.7) was incubated without heparin at 37° C. for 48 h. Heparin (mixture of ^3H-labeled and nonlabeled) was then added and the TTR-heparin sample was incubated for an additional hour at 37° C. The sample was thereafter separated by native-PAGE and the gel was cut into 6 sections as illustrated in FIG. 4A. Radioactivity in each section was measured by scintillation counting. Data represents triplicate experiments (mean±SEM).
# as §3
# After incubation, 10 μl of the samples was mixed with 2.5 μl of a 5× sample buffer (0.3 M Tris-HCl, pH 6.8, 0.05% bromophenol blue, 50% glycerol) and loaded onto a 10% polyacrylamide gel without SDS. […] For quantification of ^3H-labeled heparin, the corresponding lanes in the gel were cut into six sections including the stacking gel (see FIG. 4A) that were transferred to a scintillation vial in 3 ml of H2O. After 2 hr incubation, 2 ml of scintillation cocktail was added and the radioactivity was measured.
# [6] = test system: TTR transgenic flies (engineered mutant form of human TTR); assay: Transgenic Drosophila TTR-model, flies reared on supplemented medium; type: in vivo, Drosophila melanogaster; conditions: medium supplemented 10 mg/ml, heads collected after 9-17 days
# Description: (A) Eggs of TTR transgenic flies were cultured on regular medium (control) or medium supplemented with low molecular weight heparin (Klexane®) or heparin. Heads were collected 9-17 days posteclosion and lysed in saline. The extract was analyzed by ThT staining. Values represent the average of duplicate experiments. (B) The presence of heparin in the Drosophila head lysate was analyzed with dot-blot stained Alcian blue. Heparin (25 ng and 50 ng) was used as positive control. Twenty-five microliters of the lysate (same samples as used for ThT analysis) was applied to a nylon membrane (Hybond N+, GE Healthcare) and stained with Alcian blue (0.5% Alcian Blue dissolved in 25% isopropanol and 3% acetic acid).
# FIG. 14 illustrates the detection of heparin-TTR co-localization in TTR transgenic flies (A-G) Confocal microscopy analysis of cryo-sections prepared from Drosophila heads. (A) Overview image of a Drosophila head stained with DAPI (blue), showing the brain (Br), optical lobes (OI) and retina (Re). […]
# The transgenic Drosophila melanogaster strain (Dhet TTR-A) overexpressing a mutant TTR was generated as described (7). […] The fluorescence was measured as described above. Non-TTR-transgenic flies were used as control to subtract background fluorescence. […]
# [7] = target: T4, recombinant wild-type TTR; assay: Congo red staining of TTR after incubation with heparin; type: biochemical; conditions: fluorescence and polarized light microscopy
# Description: as §2
compound,measurement,setting,value
"24-35 peptide containing the V30M mutation: TTR 24-35 peptide with the V30M mutation associated with familial amyloid neuropathy (PAINVAMHVFRK; UniProt P02766 44-55, looked up, variant V30M)",Binding of 3H-labeled heparin to the peptide,[1],substantially lower binding to heparin compared to the WT peptide
Cc1ccc2c(c1)sc(-c1ccc(N(C)C)cc1)[n+]2C.[Cl-] [Thioflavin T],Binding to surface immobilized with dissociated TTR (SPR),[2]; Thioflavin T 50 μM,no binding
same,Binding to surface immobilized with aggregated TTR (SPR),[2]; Thioflavin T injection,significant binding
"PAINVAVHVFRK [peptide of aa 24-35, Synthesized peptide of aa 24-35 of TTR]",Binding of 3H-labeled heparin to the peptide,[1],bound to heparin
same,Interaction of the peptide with the heparin surface (SPR),[3],interacted with heparin
heparin,Binding of 3H-labelled heparin to aggregated TTR,"[4]; TTR 500 μM pre-incubated at pH 7.4 or 2.7, heparin 30 min at room temperature",binds to aggregated TTR
same,Binding of 3H-labeled heparin to dissociated versus native full-length TTR,[4]; pH 5.0,preferentially bound to dissociated TTR
same,Binding to dissociated TTR (SPR response),"[2]; pH 5.0 (mildly acidic), 10 μM",observed
same,Affinity of TTR for heparin relative to HS II,"[2]; pH 5.0, apparent KD from steady state",10 fold
same,ThT fluorescence (fibril content),"recombinant human WT TTR; TTR 50 μM, pH 2.7, 37° C., 48 h, in the presence of heparin",8000 AU
same,Effect on TTR fibrillization/aggregation (ThT fluorescence),"recombinant human WT TTR; TTR 50 μM, pH 2.7, heparin or HS 12 μM, 37° C., 48 h","prompted TTR aggregation, forming substantial amounts of amyloid-like fibrils"
same,Effect on TTR fibrillization (ThT fluorescence),recombinant human WT TTR; pH 2.7 and 5.0,greatly promoted TTR fibrillization
same,Migration pattern of TTR aggregates on native-PAGE,"[5]; TTR 500 μM, heparin 5 or 20 μM, pH 2.7, 37° C., 48 h",substantial macromolecular TTR aggregates migrating in the top of the gel
same,Interaction of 3H-labeled heparin with pre-aggregated TTR (gel sections),"[5]; TTR aggregated 48 h without heparin, then heparin for 1 h at 37° C.",no or very little heparin interacted with aggregated TTR
same,Recovery of 3H-labeled heparin in gel sections after co-incubation with TTR,"[5]; pH 2.7, 37° C., 48 h co-incubation",substantially recovered in section 1
same,TTR amyloid-like fibril formation in fly head lysate (ThT fluorescence),[6],generated ThT-positive amyloid-like fibrils; also recorded: promoted formation of TTR amyloid-like fibrils
same,Congo red staining of fibrils,[7],Congo red positive fibrils
